# Measurements reported in patent publication US11053204B2, “Pyrimidinyloxy benzene derivatives as herbicides” (FMC Corporation, priority 2015, dated 2021).
# Key:
# Type in all cases: in vivo
# [1] = tested on: chickweed (common chickweed, Stellaria media); assay: Test C postemergence, plant response rating; conditions: Stellaria media, post-emergence
# Summary of the method: (§1)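 After sowing in loam–sand blend or silt loam, pots were sprayed preemergence; separately grown 1- to 4-leaf plants were sprayed postemergence. Following 13 to 15 d under greenhouse conditions, injury was rated visually on a 0 to 100 scale.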
# [2] = tested on: soybean (Glycine max); assay: Test C postemergence, plant response rating; conditions: Glycine max, post-emergence
# Summary of the method: as §1
# [3] = tested on: lambsquarters (Chenopodium album); assay: Test C postemergence, plant response rating; conditions: Chenopodium album, post-emergence
# Summary of the method: as §1
# [4] = tested on: velvetleaf (Abutilon theophrasti); assay: Test C postemergence, plant response rating; conditions: Abutilon theophrasti, post-emergence
# Summary of the method: as §1
# [5] = tested on: ragweed (common ragweed, Ambrosia elatior); assay: Test C postemergence, plant response rating; conditions: Ambrosia artemisiifolia, post-emergence
# Summary of the method: as §1
# [6] = tested on: ryegrass, Italian (Italian ryegrass, Lolium multiflorum); assay: Test C postemergence, plant response rating; conditions: Lolium multiflorum, post-emergence
# Summary of the method: as §1
# [7] = tested on: oat, wild (wild oat Avena fatua); assay: Test C postemergence, plant response rating; conditions: Avena fatua, post-emergence
# Summary of the method: as §1
# [8] = tested on: foxtail, giant (giant foxtail, Setaria faberii); assay: Test C postemergence, plant response rating; conditions: Setaria faberi, post-emergence
# Summary of the method: as §1
# [9] = tested on: waterhemp (common waterhemp, Amaranthus rudis); assay: Test C postemergence, plant response rating; conditions: for Plant response rating, Waterhemp: scale 0 to 100; for Waterhemp plant response rating: scale 0 to 100 (0 no effect, 100 complete control)
# Summary of the method: as §1
# [10] = tested on: pigweed (Amaranthus retroflexus); assay: Test A postemergence, visual injury rating; conditions: Amaranthus retroflexus, post-emergence, 240 h, 0 is no effect, 100 is complete control, read-out: Pigweed plant response rating (0 to 100 scale)
# Summary of the method: (§2)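 Greenhouse pot test, loam/sand soil. Formulation: non-phytotoxic solvent mix plus surfactant. Pre: directed spray onto soil after sowing. Post: plants at 1–2 leaf, 2–10 cm. Rated visually vs untreated controls at ~10 d, 0 (no effect) to 100 (complete control).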
# [11] = tested on: kochia (Kochia scoparia); assay: Test A postemergence, visual injury rating; conditions: Bassia scoparia, post-emergence, 240 h, 0 is no effect, 100 is complete control, read-out: Kochia plant response rating (0 to 100 scale)
# Summary of the method: as §2
# [12] = tested on: blackgrass (Alopecurus myosuroides); assay: Test A postemergence, visual injury rating; conditions: Alopecurus myosuroides, post-emergence, 240 h, 0 is no effect, 100 is complete control, read-out: Blackgrass plant response rating (0 to 100 scale)
# Summary of the method: as §2
# [13] = tested on: corn (Zea mays); assay: Test A postemergence, visual injury rating; conditions: Zea mays, post-emergence, 240 h, 0 is no effect, 100 is complete control, read-out: Corn plant response rating (0 to 100 scale)
# Summary of the method: as §2
# [14] = tested on: barnyardgrass (Echinochloa crus-galli); assay: Test A postemergence, visual injury rating; conditions: Echinochloa crus-galli, post-emergence, 240 h, 0 is no effect, 100 is complete control, read-out: Barnyardgrass plant response rating (0 to 100 scale)
# Summary of the method: as §2
# [15] = tested on: ragweed (common ragweed, Ambrosia elatior); assay: Test A postemergence, visual injury rating; conditions: Ambrosia artemisiifolia, post-emergence, 240 h, 0 is no effect, 100 is complete control, read-out: Ragweed plant response rating (0 to 100 scale)
# Summary of the method: as §2
# [16] = tested on: giant foxtail (Setaria faberii); assay: Test A postemergence, visual injury rating; conditions: Setaria faberi, post-emergence, 240 h, 0 is no effect, 100 is complete control, read-out: Foxtail, Giant plant response rating (0 to 100 scale)
# Summary of the method: as §2
# [17] = tested on: Italian ryegrass (Lolium multiflorum); assay: Test A postemergence, visual injury rating; conditions: Lolium multiflorum, post-emergence, 240 h, 0 is no effect, 100 is complete control, read-out: Ryegrass, Italian plant response rating (0 to 100 scale)
# Summary of the method: as §2
# [18] = tested on: galium (catchweed bedstraw, Galium aparine); assay: Test A postemergence, visual injury rating; conditions: Galium, post-emergence, 240 h, 0 is no effect, 100 is complete control, read-out: Galium plant response rating (0 to 100 scale)
# Summary of the method: as §2
# [19] = tested on: wheat (Triticum aestivum); assay: Test A postemergence, visual injury rating; conditions: Triticum aestivum, post-emergence, 240 h, 0 is no effect, 100 is complete control, read-out: Wheat plant response rating (0 to 100 scale)
# Summary of the method: as §2
# [20] = 62 g ai/ha, scale 0 to 100 (0 no effect, 100 complete control)
# [21] = 125 g ai/ha, scale 0 to 100 (0 no effect, 100 complete control)
compound,measurement,setting,value
"O=C(OCC(F)(F)C(F)(F)F)c1c(Br)cccc1Oc1ncc(Cl)cn1 [Compound 23, 2,2,3,3,3-pentafluoropropyl 2-bromo-6-[(5-chloro-2-pyrimidinyl)oxy]benzoate]",pest or weed control at 16 g/ha,"[1]; 16 g ai/ha, scale 0 to 100",5%
same,pest or weed control at 31 g/ha,"[1]; 31 g ai/ha, scale 0 to 100",50%
same,pest or weed control at 62 g/ha,[1]; [20],50%
same,pest or weed control at 125 g/ha,[1]; [21],85%
same,plant injury at 16 g/ha,"[2]; 16 g ai/ha, scale 0 to 100",20%
same,plant injury at 31 g/ha,"[2]; 31 g ai/ha, scale 0 to 100",30%
same,plant injury at 62 g/ha,[2]; [20],70%
same,plant injury at 125 g/ha,[2]; [21],35%
same,pest or weed control at 16 g/ha,"[3]; 16 g ai/ha, scale 0 to 100",25%
same,pest or weed control at 31 g/ha,"[3]; 31 g ai/ha, scale 0 to 100",55%
same,pest or weed control at 62 g/ha,[3]; [20],65%
same,pest or weed control at 125 g/ha,[3]; [21],80%
same,pest or weed control at 16 g/ha,"[4]; 16 g ai/ha, scale 0 to 100",10%
same,pest or weed control at 31 g/ha,"[4]; 31 g ai/ha, scale 0 to 100",35%
same,pest or weed control at 62 g/ha,"[4]; 62 g ai/ha, scale 0 to 100 (0 no effect, 100 complete control), read-out: Velvetleaf plant response rating",35%
same,pest or weed control at 125 g/ha,[4]; [21],40%
same,pest or weed control at 16 g/ha,"[5]; 16 g ai/ha, scale 0 to 100",15%
same,pest or weed control at 31 g/ha,"[5]; 31 g ai/ha, scale 0 to 100",35%
same,pest or weed control at 62 g/ha,[5]; [20],40%
same,pest or weed control at 125 g/ha,[5]; [21],50%
same,pest or weed control at 16 g/ha,"[6]; 16 g ai/ha, scale 0 to 100",0%
same,pest or weed control at 31 g/ha,"[6]; 31 g ai/ha, scale 0 to 100",0%
same,pest or weed control at 62 g/ha,[6]; [20],5%
same,pest or weed control at 125 g/ha,[6]; [21],5%
same,pest or weed control at 16 g/ha,"[7]; 16 g ai/ha, scale 0 to 100",5%
same,pest or weed control at 31 g/ha,"[7]; 31 g ai/ha, scale 0 to 100",5%
same,pest or weed control at 62 g/ha,[7]; [20],10%
same,pest or weed control at 125 g/ha,[7]; [21],5%
same,pest or weed control at 16 g/ha,"[8]; 16 g ai/ha, scale 0 to 100",10%
same,pest or weed control at 31 g/ha,"[8]; 31 g ai/ha, scale 0 to 100",35%
same,pest or weed control at 62 g/ha,[8]; [20],25%
same,pest or weed control at 125 g/ha,[8]; [21],30%
same,"Plant response rating, Waterhemp",[9]; 16 g ai/ha,80
same,"Plant response rating, Waterhemp",[9]; 31 g ai/ha,90
same,Waterhemp plant response rating,[9]; 62 g ai/ha,85
same,Waterhemp plant response rating,[9]; 125 g ai/ha,95
same,pest or weed control at 125 g/ha,[10]; 125 g ai/ha,100%
same,pest or weed control at 500 g/ha,[10]; 500 g ai/ha,100%
same,pest or weed control at 125 g/ha,[11]; 125 g ai/ha,80%
same,pest or weed control at 500 g/ha,[11]; 500 g ai/ha,100%
same,pest or weed control at 125 g/ha,[12]; 125 g ai/ha,10%
same,pest or weed control at 500 g/ha,[12]; 500 g ai/ha,50%
same,plant injury at 125 g/ha,[13]; 125 g ai/ha,10%
same,plant injury at 500 g/ha,[13]; 500 g ai/ha,20%
same,pest or weed control at 125 g/ha,[14]; 125 g ai/ha,10%
same,pest or weed control at 500 g/ha,[14]; 500 g ai/ha,50%
same,pest or weed control at 125 g/ha,[15]; 125 g ai/ha,0%
same,pest or weed control at 500 g/ha,[15]; 500 g ai/ha,10%
same,pest or weed control at 125 g/ha,[16]; 125 g ai/ha,30%
same,pest or weed control at 500 g/ha,[16]; 500 g ai/ha,80%
same,pest or weed control at 125 g/ha,[17]; 125 g ai/ha,10%
same,pest or weed control at 500 g/ha,[17]; 500 g ai/ha,70%
same,pest or weed control at 125 g/ha,[18]; 125 g ai/ha,90%
same,pest or weed control at 500 g/ha,[18]; 500 g ai/ha,100%
same,plant injury at 125 g/ha,[19]; 125 g ai/ha,0%
same,plant injury at 500 g/ha,[19]; 500 g ai/ha,10%
